What was measured:
[1] = system: collagen fibers in the transition zone between the annulus fibrosus and nucleus pulposus; assay: Riboflavin/UV crosslinking of collagen fibers in bovine intervertebral disc cryosections, autofluorescence microscopy; settings: 10 bovine samples, 0.6 mm slices; 0.1 mL of 0.25% riboflavin solution twice at 30 s interval; UV 370 nm, 9 mW/cm^2, two minutes
Protocol: (§1) Five freshly frozen bovine intervertebral discs and two freshly frozen human intervertebral discs from the Anatomy department of the University of Freiburg were used for the experiments (see FIG. 6).
(§2) The intervertebral discs were thinly cut into 0.6 mm thick slices using a cryomicrotome and placed on glass plates (see FIG. 7). The thin discs arise from the transition zone between the annulus fibrosus and nucleus pulposus, which is indicated by a rectangle in FIG. 6.
(§3) A total of 10 bovine and 10 human samples were prepared and examined for the experiments.
(§4) Before treatment with riboflavin, the samples were imaged by autofluorescence microscopy to visualize the collagen fibers. The architecture, orientation and crosslinking density of the collagen fibers in the samples before treatment are shown in FIGS. 9 a) and 10 a).
(§5) To crosslink the collagen fibers, 0.1 mL of a riboflavin solution at a concentration of 0.25% was administered twice at a time interval of 30 seconds. The sample was then irradiated with UV light.
(§6) A UV radiation source with an average wavelength of 370 nm (365-375 nm) was used to irradiate the samples. […]
(§7) After the treatment, the collagen fibers were reimaged using autofluorescence microscopy in order to visualize the identical sample area. This allows changes in the crosslinking density of the collagen fibers to be detected.

[2] = system: collagen fibers in the transition zone between the annulus fibrosus and nucleus pulposus; assay: Riboflavin/UV crosslinking of collagen fibers in human intervertebral disc cryosections, autofluorescence microscopy; settings: 10 human samples, 0.6 mm slices; 0.1 mL of 0.25% riboflavin solution twice at 30 s interval; UV 370 nm, 9 mW/cm^2, two minutes
Protocol: as §1, §2, §3, §4, §5, §6, §7

[3] = system: bovine intervertebral discs; assay: Young's modulus of fresh bovine intervertebral discs before and after UV irradiation (Biomomentum Mach-1); settings: 8 mM riboflavin (riboflavin 5′-phosphate sodium salt hydrate) in PBS, 15 min soak, 365 nm UVA, 3.5 mW/cm^2, 15 minutes
Protocol: For the characterization, Young's modulus or modulus of elasticity (Akhtar et. Al 2011) was determined locally on an established device (Biomomentum Mach-1 Biomomentum Inc.; Sim et al. 2014).
Fresh bovine tails were provided from the local meat processing plant within 2 hours of slaughter. The paravertebral structure was removed (FIG. 11).
Bovine intervertebral discs (IVDs), which are attached to the vertebral body, were isolated (FIG. 12).
In order to stabilize the samples on the device, the bovine vertebral bodies with attached intervertebral discs were fixed in PMMA bone cement (FIG. 13).
With the aid of the camera of the Biomomentum device, the surface of the bovine intervertebral discs was measured with respect to their biomechanical properties (Young's modulus) (FIG. 14).
A solution with 8 mM riboflavin (riboflavin 5′-phosphate sodium salt hydrate, Sigmaaldrich) in PBS (phosphate buffered saline solution) and pH: 7.4 water (Thermofisher) was used to soak the exposed surface of the bovine intervertebral discs for 15 minutes (dark mode). Immediately afterwards, the samples were placed in the Biomomentum device for analysis (dark mode).
After the analysis, the same sample was irradiated homogeneously with 365 nm UVA light (Opsytech Dr. Groebel-UV LED series L) at 3.5 mW/cm^2 for 15 minutes. A second analysis of the previously measured positions followed.
A total of 38 measurements were carried out on 15 healthy bovine intervertebral discs.
The percentage stiffening corresponds to the percentage increase in Young's modulus after UV irradiation, compared to the value measured before UV irradiation.

[4] = compared to value before UV irradiation

## Cc1cc2nc3c(=O)[nH]c(=O)nc-3n(C[C@H](O)[C@H](O)[C@H](O)CO)c2cc1C [riboflavin, 7,8-dimethyl-10-(D-ribit-1-yl)-isoalloxazine]
[1]
  crosslinking density of the collagen fibers: visually evident increase in the crosslinking density
[2]
  crosslinking density of the collagen fibers: visually evident increase in the crosslinking density
[3]; 38 measurements on 15 discs
  elastic properties (Young's modulus) after UV irradiation: Stiffening or reinforcement of the elastic properties (Young's modulus) was observed in all samples
[3]; [4]
  maximum stiffening (percentage increase in Young's modulus after UV irradiation): 348%
  minimum stiffening or reinforcement (percentage increase in Young's modulus after UV irradiation): 52%
